From patent US5376679A, “Bicyclic or tricyclic biocidal compounds” (Shell Internationale Research Maatschappij B.V., priority 1988, dated 1994)
Values after ≈ are worked out from the molar mass of the structure shown.

Legend:
[1] = system: Erysiphe graminis f.sp. hordei; test: Direct antisporulant activity against barley powdery mildew (Eg); type: in vivo; design: scale not given here; conditions: foliar spray, 1 kg/ha; activity grade 1 or 2, not defined
From the text: (f) Activity Against Barley Powdery Mildew (Erysiphe graminis f.sp. hordei; Eg) The test is a direct antisporulant one, using a foliar spray. Leaves of barley seedlings, cultivar Golden Promise, are inoculated by dusting with mildew conidia one day prior to treatment with the test compound. The inoculated plants are kept overnight at glasshouse ambient temperature and humidity prior to treatment. […] After drying, plants are returned to a compartment at ambient temperature and humidity for up to 7 days, followed by assessment. Assessment is based on the percentage of leaf area covered by sporulation compared with that on leaves of control plants.

[2] = system: Plasmopara viticola; test: Direct protectant activity against vine downy mildew (Pvp); type: in vivo; design: Pvp: direct protectant activity against vine downy mildew: scale not given here; conditions: for Pvp: direct protectant activity against vine downy mildew: foliar spray, 1 kg/ha, activity grade 1 or 2, not defined
From the text: (a) Direct Protectant Activity Against Vine Downy Mildew (Plasmopara viticola; Pvp)
The test is a direct protectant one, using a foliar spray. The lower surfaces of leaves of whole vine plants (cv Cabernet Sauvignon) are sprayed with a solution of active material in 1:1 v/v water/acetone containing 0.04% w "Triton X-155" (trade mark) (octylphenol polyoxyethylene surfactant), at a dosage of 1 kilogram of active material per hectare using a track sprayer which delivers 620 liters/ha, and after a subsequent 24 hours under normal glasshouse conditions the lower surfaces of the leaves are inoculated by spraying with an aqueous solution containing 10^4 zoosporangia/ml. The inoculated plants are kept for 24 hours in a high humidity compartment, 5 days under normal glasshouse conditions and then returned for a further 24 hours to high humidity. Assessment is based on the percentage of leaf area covered by sporulation compared with that on control leaves.

[3] = system: Pseudocercosporella herpotrichoides; test: In vitro activity against wheat eyespot (Ph); type: cell-based; design: Ph: activity against wheat eyespot: scale not given here; conditions: in vitro, 100 ppm in agar, 11 days; activity grade 1 or 2, not defined
Method: (c) Activity Against Wheat Eyespot (Pseudocercosporella herpotrichoides; Ph)
The test is an in vitro one. Samples are prepared wherein 0.7 mls solution containing 2 mg active material dissolved in acetone is evenly dispersed in 20 ml molten half-strength potato dextrose agar (formed by dissolving 2 g potato extract, 10 g dextrose and 7.5 g agar in 1 liter of water and sterilising for 15 minutes and 121° C.) and the resulting 20 ml portions are allowed to set in 9 cm petri dishes. The concentration of active material in the resulting samples is 100 ppm. Upon setting, two plugs of 5 mm diameter taken from the advancing edge of a stock plate of a 3 to 4 week old culture of P.herpotrichoides on full strength potato dextrose agar, incubated at 20°-22° C. in darkness, are placed, equally spaced on the surface of each sample, mycelial side uppermost. The samples are incubated for 11 days at 20°-22° C. in darkness before assessment. Diametric growth is measured with the width of the plug subtracted and results compared with growth on a sample wherein 0.7 ml acetone containing no active material is dispersed in 20 ml half-strength potato agar.

[4] = system: Saccharomyces cerevisiae; test: Minimum inhibitory concentration, yeast (Sc); type: cell-based, Saccharomyces cerevisiae (ATCC 9763); conditions: 30° C., 24 and 72 hours
Method: Inocula of S. cerevisiae were prepared as for S. aureus, B. subtilis and E. coli, but using yeast malt broth in place of the typtone soya broth. The yeast malt broth was prepared by suspending 3 g yeast extract, 3 g malt extract, 5 g peptone and 10 g dextrose in 1 liter of distilled water, warming to achieve solution and sterilising by autoclaving at 121° C. for 15 minutes.
(§1) Test procedures were as follows:
(§2) (ii) Dilution Series for Other Test Bacteria, Yeast and Filamentous Fungi
(§3) Dilution series from the stock solution of each compound were prepared in sterile distilled water. These contained 50, 100, 500 and 1000 ppm compound. To duplicate wells of a compartmentalised square petri dish 0.3 ml of each test compound concentration was added together with 2.7 ml of one of the microbial inocula described above. This gave final concentrations of the test compound of 5, 10, 50 and 100 ppm.
(§4) After incubation, in the dark, at 30° C. the wells were examined for the presence or absence of growth. Bacterial and yeast cultures were examined after 24 hours and 72 hours incubation and the fungi cultures after 3, 7 and 10 days.
(§5) By means of the above tests minimum inhibitory concentrations were determined for the various test compounds.

[5] = system: Escherichia coli; test: Minimum inhibitory concentration, Escherichia coli (Ec); type: cell-based, Escherichia coli (NCIB 9517); conditions: 30° C., 24 and 72 hours
Method: (§6) In respect of S. aureus, B. subtilis and E. coli, the microorganisms were cultured in 50 ml aliquots of a tryptone soya broth in 250 ml conical flasks at 30° C. on a rotary shaker at 200 rpm for 24 hours. Tryptone soya broth was prepared by adding 17 g pancreatic digest of casein, 3 g […] digest of soyabean meal, 5 g of sodium chloride, 2.5 g of dipotassium hydrogen phosphate and 2.5 g of dextrose to 1 liter of distilled water, mixing and sterilising by autoclaving at 121° C. for 15 minutes. 1 ml aliquots of the resulting cultures were mixed with 99 ml of fresh tryptone soya broth and used as inocula for tests. […] Test procedures were as follows: (ii) Dilution Series for Other Test Bacteria, Yeast and Filamentous Fungi Dilution series from the stock solution of each compound were prepared in sterile distilled water. These contained 50, 100, 500 and 1000 ppm compound. To duplicate wells of a compartmentalised square petri dish 0.3 ml of each test compound concentration was added together with 2.7 ml of one of the microbial inocula described above. […] After incubation, in the dark, at 30° C. the wells were examined for the presence or absence of growth. Bacterial and yeast cultures were examined after 24 hours and 72 hours incubation and the fungi cultures after 3, 7 and 10 days. By means of the above tests minimum inhibitory concentrations were determined for the various test compounds.

[6] = system: Bacillus subtilis; test: Minimum inhibitory concentration, Bacillus subtilis (Bs); type: cell-based; conditions: 30° C., 24 and 72 hours
Method: as §6

[7] = system: Leptosphaeria nodorum; test: Direct antisporulant activity against wheat leafspot (Ln); type: in vivo; design: scale not given here; conditions: foliar spray, 1 kg/ha; activity grade 1 or 2, not defined
Method: (e) Activity Against Wheat Leafspot (Leptosphaeria nodorum; Ln) The test is a direct antisporulant one, using a foliar spray. Leaves of wheat plants ([…]), at the single leaf stage, are inoculated by spraying with an aqueous suspension containing 8×10^5 spores/mi. The inoculated plants are kept for 24 hours in a high humidity compartment prior to treatment. […] After drying, the plants are kept for 5 days under normal glasshouse conditions, followed by assessment. Assessment is based on the percentage of leaf area covered by sporulation compared with that on leaves of control plants.

[8] = system: Desulfovibrio sp.; test: Minimum inhibitory concentration, sulphate-reducing bacteria (Dsp); type: cell-based; conditions: 30° C., 2, 5 and 10 days
Method: The sulphate reducing bacteria Desulfovibrio sp. were cultured in a modified Postgate's Medium B for 48 hours at 30° C. and used directly as an inoculum. The modified Postgate's Medium B consisted of 0.5 g dipotassium hydrogen phosphate, 1 g ammonium chloride, 1 g sodium sulphate, 5 g sodium lactate, 1 g yeast extract, 0.1 ml thioglycolic acid, 0.1 ml ascorbic acid, 0.5 g ferrous sulphate heptahydrate, 750 ml aged seawater and 250 ml distilled water, pH adjusted to 7.8, divided into aliquots and sterilised by autoclaving at 121° C. for 15 minutes. […] Test procedures were as follows: (i) Suphate-reducing Bacteria Test Dilution Series Duplicate aliquots (9.9 ml) of dilution series from the stock solutions of each compound were prepared in a modified Postgate's Medium B described above. These contained 100 ppm compound. These were then inoculated with 0.1 ml of inoculum. After incubation at 30° C., the presence or absence of growth--as indicated by a blackening of the medium due to ferrous sulphide production--was recorded at 2, 5 and 10 days. […] By means of the above tests minimum inhibitory concentrations were determined for the various test compounds.

[9] = system: Fusarium culmorum; test: Activity against seedling wheat blight, soil drench (Fs); type: in vivo; design: scale not given here; conditions: 10 kg/ha, 21 days, activity grade 1 or 2, not defined
Method: (d) Activity Against Seedling Wheat Blight (Fusarium culmorum; Fs)
The test is an anti-sporulant one using a soil drench. Surface sterilised wheat seeds (var Waggoner) are inoculated by soaking in an aqueous suspension containing 7×10^5 spores/ml (60 mg seed per 80 ml suspension) at 22° C. for 6 hours. The seeds are then sown in pots (5 per pot) in sand at a depth of 1 cm. 1 day after inoculation and planting the active material is applied at a rate of 10 kg/ha by pouring on a soil drench (concentration 0.36 g/l active material in 12% v/v acetone/water) evenly over the sand. The pots are then transferred to a glasshouse, kept at 25° C. and watered sparingly. 21 days after inoculation the resulting seedlings are removed from the pots and their roots are gently washed. Visual assessment is made based on lesion development on stem base and upper roots in comparison with control seedlings.

[10] = system: Cladosporium resinae; test: Minimum inhibitory concentration, Cladosporium resinae (Cr); type: cell-based; conditions: Amorphotheca resinae, 30° C., 3, 7 and 10 days
Method: (§7) Inocula of the fungi Aspergillus niger, Cladosporium resinae and Chaetomium globosum were prepared containing 5×10^5 conidia/ml in a potato dextrose broth. The potato dextrose broth was prepared by suspending 4 g potato extract and 20 g dextrose in 1 liter of distilled water, warming to achieve solution, separating into aliquots and sterilising by autoclaving at 121° C. for 15 minutes.
as §1, §2, §3, §4, §5

[11] = system: Staphylococcus aureus; test: Minimum inhibitory concentration, Staphylococcus aureus (Sa); type: cell-based, Staphylococcus aureus (NCIB 6571); conditions: 30° C., 24 and 72 hours
Method: as §6

[12] = system: Chaetomium globosum; test: Minimum inhibitory concentration, Chaetomium globosum (Chg); type: cell-based
Method: as §7, §1, §2, §3, §4, §5

[13] = system: Aspergillus niger; test: Minimum inhibitory concentration, Aspergillus niger (An); type: cell-based, Aspergillus niger (CMI 17454); conditions: 30° C., 3, 7 and 10 days
Method: as §7, §1, §2, §3, §4, §5

Row | Structure (SMILES) | Eg: activity against barley powdery mildew [1] | Pvp: direct protectant activity against vine downy mildew [2] | Ph: activity against wheat eyespot [3] | MIC [4] [µg/mL] | MIC [5] [µg/mL] | MIC [6] [µg/mL] | Ln: activity against wheat leafspot [7] | MIC [8] [µg/mL] | Fs: activity against seedling wheat blight [9] | MIC [10] [µg/mL] | MIC [11] [µg/mL] | MIC ([12]; *only tested at 100 ppm) [µg/mL] | MIC [13] [µg/mL] | MIC ([12]; 30° C., 3, 7 and 10 days) [µg/mL] | activity against Pvp ([2]; secondary screening)
1 | C#CCOC(=O)N=Nc1cc(C)c(Cl)c2c1OC(C)CC2 (stereo not drawn) [Example 41] | 1 | 1 | – | – | – | – | – | – | – | – | – | – | – | – | –
2 | CCC1Cc2cccc([N+]([O-])=NC#N)c2O1 (stereo not drawn) [Example 8] | 1 | – | 2 | 100 (≈ 460 µM) | > 100 | > 100 | 1 | > 100 | 2 | 10 (≈ 46 µM) | > 100 | < 100 | 10 (≈ 46 µM) | – | –
3 | N#CN=[N+]([O-])c1cccc2c1OC(CO)C2 (stereo not drawn) [Example 12] | – | – | – | > 100 | 100 (≈ 456 µM) | 50 (≈ 228 µM) | – | 50 (≈ 228 µM) | – | 100 (≈ 456 µM) | > 100 | – | > 100 | 100 (≈ 456 µM) | –
4 | CC1CCc2cccc([N+]([O-])=NC#N)c2O1 (stereo not drawn) [Example 14] | – | – | 2 | 50 (≈ 230 µM) | > 100 | > 100 | – | 100 (≈ 460 µM) | – | 25 (≈ 115 µM) | > 100 | – | 10 (≈ 46 µM) | < 5 | –
5 | C#CCOC(=O)N=Nc1ccc(C)c2c1OC(C)CC2 (stereo not drawn) [Example 39] | 1 | – | – | – | – | – | 1 | – | – | – | – | – | – | – | –
6 | CC1(C)CCc2cc(Cl)cc([N+]([O-])=NC#N)c2O1 [Example 15] | – | – | 2 | 50 (≈ 188 µM) | > 100 | 100 (≈ 376 µM) | – | > 100 | 2 | > 100 | > 100 | – | 10 (≈ 37.6 µM) | > 100 | –
7 | CC1(C)C=Cc2cccc([N+]([O-])=NC#N)c2O1 [Example 27] | – | – | 2 | > 100 | > 100 | > 100 | – | 100 (≈ 436 µM) | 2 | 25 (≈ 109 µM) | > 100 | < 100 | 100 (≈ 436 µM) | – | –
8 | COC(=O)N=[N+]([O-])c1cc(C)cc2c1OC(C)(C)C2 [Example 44] | 2 | 1 | – | – | – | – | – | – | – | – | – | – | – | – | –
9 | Cc1ccc(N=NC#N)c2c1CC(C)(C)O2 [Example 38] | – | 2 | – | – | – | – | – | – | – | – | – | – | – | – | high activity
10 | COC(=O)N=Nc1cc(C)cc2c1OC(C)(C)C2 [Example 32] | – | 1 | – | – | – | – | – | – | – | – | – | – | – | – | –
11 | N#CN=[N+]([O-])c1ccc2c(c1)C=CCO2 [Example 28] | – | – | – | 25 (≈ 124 µM) | > 100 | 50 to 100 (≈ 249 to 497 µM) | – | 100 (≈ 497 µM) | – | 25 to 50 (≈ 124 to 249 µM) | > 100 | – | 10 to 25 (≈ 49.7 to 124 µM) | 25 (≈ 124 µM) | –
12 | N#CN=[N+]([O-])c1cccc2c1OC(CCl)C2 (stereo not drawn) [Example 13] | – | – | – | 100 (≈ 421 µM) | 100 (≈ 421 µM) | 100 (≈ 421 µM) | – | > 100 | – | 100 (≈ 421 µM) | 100 (≈ 421 µM) | – | 10 (≈ 42.1 µM) | 25 (≈ 105 µM) | –
13 | CCOC(=O)N=Nc1cc(C)c(Cl)c2c1OC(C)CC2 (stereo not drawn) [Example 42] | 2 | – | – | – | – | – | – | – | – | – | – | – | – | – | –
